Experimental data published in patent US9817000B2, “Method for identifying compounds that modulate a T2R taste receptor” (The Regents of the University of California, priority 1999, dated 2017).

Assays:
mGluR1 receptor = target: T1, mGluR1 receptor (Rattus norvegicus, UniProt P23385); assay: FURA-2 [Ca2+]i imaging in HEK-293 cells with Gα15 and mGluR1 receptor; format: cell-based; conditions: 20 μM
T1 construct: expressed in transfected cells; host or cells: HEK-293 cells containing Gα15
From the text: (§1) In this system, receptor activation leads to increases in intracellular calcium [Ca2+]i, which can be monitored at the single cell level using the FURA-2 calcium-indicator dye (Tsien et al., Cell Calcium 6:145-157 (1985)). To test and optimize Gα15 coupling, two different GPCRs, a Gαi-coupled μ-opioid receptor (Reisine, Neuropharm. 34:463-472 (1995)) and a Gαq-coupled mGluR1 receptor (Masu et al., Nature 349:760-765 (1991)), were used. Transfection of these receptors into HEK-293 cell produced robust, agonist-selective, and Gα15-dependent Ca^2+ responses (FIG. 1).

mT2R5 = target: T2, mT2R5 (Mus musculus, UniProt Q9JKT4); assay: FURA-2 [Ca2+]i imaging in HEK-293 cells expressing Gα15 and rho-mT2R5 (taster, DBA/2 allele); format: cell-based
T2 construct: expressed in transfected cells; host or cells: modified HEK-293 cells (PEAKrapid) expressing Gα15; pEAK10 vector
T2 sequence (Q9JKT4 1-300): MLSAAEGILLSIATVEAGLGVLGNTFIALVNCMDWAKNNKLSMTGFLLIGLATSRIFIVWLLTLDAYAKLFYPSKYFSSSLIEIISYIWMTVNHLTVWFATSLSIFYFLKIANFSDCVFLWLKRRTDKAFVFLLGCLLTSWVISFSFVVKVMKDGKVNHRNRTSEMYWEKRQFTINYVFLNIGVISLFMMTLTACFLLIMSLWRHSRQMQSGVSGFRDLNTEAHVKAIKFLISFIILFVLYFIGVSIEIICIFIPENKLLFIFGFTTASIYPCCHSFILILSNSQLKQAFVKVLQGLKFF
From the text: as §1
(§2) A number of studies have shown that many GPCRs, in particular sensory receptors, require specific “chaperones” for maturation and targeting through the secretory pathway (Baker et al., Embo J 13:4886-4895 (1994); Dwyer et al., Cell 93:455-466 (1998)). Recently, Krautwurst et al. (Cell 95:917-926 (1998)) generated chimeric receptors consisting of the first 20 amino acids of rhodopsin and various rodent olfactory receptors. These were targeted to the plasma membrane and functioned as odorant receptors in HEK-293 cells. To determine whether rhodopsin sequences can also help target T2Rs to the plasma membra, rhodopsin-T2R chimeras (rho-T2Rs) were constructed. […] Similar results were obtained with 11 human and 16 rodent T2Rs (see below). To further enhance the level of T2R expression, rho-T2Rs were placed under the control of a strong EF-1α promoter, and introduced as episomal plasmids into modified HEK-293 cells expressing Gα15 (pEAKrapid cells).
(§3) A bridge overlap PCR extension technique was used to generate rho-T2R chimeras, which contain the first 39 amino acids of bovine rhodopsin in frame with human and rodent T2R coding sequences (Mehta and Singh, Biotechniques 26:1082-1086 (1999). All receptors were cloned into a pEAK10 mammalian expression vector (Edge Biosystems, MD). Modified HEK-293 cells (PEAK^rapid cells; Edge BioSystems, MD) were grown and maintained at 37° C. in UltraCulture medium (Bio Whittaker) supplemented with 5% fetal bovine serum, 100 μg/ml Gentamycin sulphate (Fisher), 1 μg/ml Amphotericin B and 2 mM GlutaMax I (Lifetechnologies). For transfection, cells were seeded onto matrigel coated 24-well culture plates or 35 mm recording chambers. After 24 h at 37° C., cells were washed in OptiMEM medium (Lifetechnologies) and transfected using LipofectAMINE reagent (Lifetechnologies). Transfection efficiencies were estimated by co-transfection of a GFP reporter plasmid, and were typically >70%. Immunofluoresence staining, and activity assays were performed 36-48 h after transfection.
(§4) Transfected cells were washed once in Hank's balanced salt solution with 1 mM sodium pyruvate and 10 mM HEPES, pH 7.4 (assay buffer), and loaded with 2 μM FURA-2 AM (Molecular Probes) for 1 h at room temperature. The loading solution was removed and cells were incubated in 200 μl of assay buffer for 1 h to allow the cleavage of the AM ester. For most experiments, 24-well tissue culture plates containing cells expressing a single rho-T2R were stimulated with 200 μl of a 2× tastant solution (see next section). [Ca^2+]i changes were monitored using a Nikon Diaphot 200 microscope equipped with a 10×/0.5 fluor objective with the TILL imaging system (T.I.L.L Photonics GmbH). Acquisition and analysis of the fluorescence images used TILL-Vision software. Generally, [Ca^2+]i was measured for 80-120 s by sequentially illuminating cells for 200 ms at 340 nm and 380 nm and monitoring the fluorescence emission at 510 nm using a cooled CCD camera. The F340/F380 ratio was analyzed to measure [Ca^2+]i.
(§5) Kinetics of activation and deactivation were measured using a bath perfusion system. Cells were seeded onto a 150 μl microperfusion chamber, and test solutions were pressure-ejected with a picospritzer apparatus (General Valve, Inc.). Flow-rate was adjusted to ensure complete exchange of the bath solution within 4-5 s. […]

hT2R4 = target: T3, hT2R4 (Homo sapiens, UniProt Q9NYW5); assay: FURA-2 [Ca2+]i imaging in HEK-293 cells expressing Gα15 and rho-hT2R4; format: cell-based; conditions: high concentrations
T3 construct: Full-length hT2Rs were isolated by PCR amplification of genomic DNA; expressed in transfected cells; host or cells: HEK-293 cells (PEAKrapid) expressing Gα15
T3 sequence (Q9NYW5 1-299): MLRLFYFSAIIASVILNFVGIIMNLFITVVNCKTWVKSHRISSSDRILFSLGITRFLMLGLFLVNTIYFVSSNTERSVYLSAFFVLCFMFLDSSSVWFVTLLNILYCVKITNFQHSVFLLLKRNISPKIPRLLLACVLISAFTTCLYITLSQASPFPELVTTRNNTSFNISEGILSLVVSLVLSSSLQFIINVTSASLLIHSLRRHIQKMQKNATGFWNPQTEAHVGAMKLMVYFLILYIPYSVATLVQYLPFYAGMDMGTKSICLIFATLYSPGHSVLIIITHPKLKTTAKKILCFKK
From the text: as §1, §2, §3, §4, §5

mT2R8 = target: T4, mT2R8 (Mus musculus, UniProt Q9JKT3); assay: FURA-2 [Ca2+]i imaging in HEK-293 cells expressing Gα15 and rho-mT2R8; format: cell-based; conditions: high concentrations
T4 construct: expressed in transfected cells; host or cells: HEK-293 cells (PEAKrapid) expressing Gα15
T4 sequence (Q9JKT3 1-297): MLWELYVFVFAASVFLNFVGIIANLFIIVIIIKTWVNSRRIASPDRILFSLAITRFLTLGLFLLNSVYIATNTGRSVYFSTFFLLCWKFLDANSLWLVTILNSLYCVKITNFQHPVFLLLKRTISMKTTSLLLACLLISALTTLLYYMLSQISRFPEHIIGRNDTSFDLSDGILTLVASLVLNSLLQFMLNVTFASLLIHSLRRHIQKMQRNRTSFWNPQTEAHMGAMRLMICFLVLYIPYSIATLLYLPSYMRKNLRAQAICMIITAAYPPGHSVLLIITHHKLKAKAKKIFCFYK
From the text: as §1, §2, §3
as §4, with “For most experiments, 24-well tissue culture plates containing cells expressing a single rho-T2R were stimulated with 200 μl of a 2× tastant solution (see next section).” left out
Kinetics of activation and deactivation were measured using a bath perfusion system. […]

[1] = target: T5, mT2R5 coupling to gustducin (Mus musculus, UniProt Q9JKT4); assay: Tastant-induced GTPγS binding to gustducin with insect cell membranes containing rho-mT2R5; format: biochemical; conditions: 1 mM
T5 construct: infectious Bacmid containing rhodopsin tagged mT2R5 (DBA/2-allele) was produced using the Bac-to-Bac system; rhodopsin tag (rho); made in house; host or cells: insect larval cells infected with recombinant Bacmid (Bac-to-Bac baculovirus system); membrane preparation
T5 sequence (Q9JKT4 1-300): T2 sequence (Q9JKT4 1-300)
Procedure: To investigate the selectivity of T2R-G-protein coupling, mT2R5 was chosen for study because its activation by cycloheximide recapitulates mouse taste responses. Rho-tagged mT2R5 and gustducin were prepared using a baculovirus expression system. mT2R5-containing membranes were incubated with various purified G-proteins, including gustducin, and measured tastant-induced GTP-γS binding (Hoon et al., Biochem J 309:629-636 (1995)). Specifically, infectious Bacmid containing rhodopsin tagged mT2R5 (DBA/2-allele) was produced using the Bac-to-Bac system (Lifetechnologies, MD). Insect larval cells were infected for 60 h with recombinant Bacmid and membranes were prepared as described previously (Ryba and Tirindelli, J Biol Chem, 270:6757-6767 (1995)). Peripheral proteins were removed by treatment with 8 M urea and membranes were resuspended in 10 mM HEPES pH7.5, 1 mM EDTA and 1 mM DTT. The expression of rho-mT2R5 was assessed by Western blot using mAb B6-30 and quantitated by comparison with known amounts of rhodopsin. Approximately 300 pmol of rho-mT2R5 could be obtained from 2×10^8 infected cells. Gustducin and Gβ1γ8 heterodimers were isolated as described previously (Hoon et al., Biochem J 309:629-636 (1995); Ryba and Tirindelli, J Biol Chem, 270:6757-6767 (1995)). Receptor-catalyzed exchange of GDP for GTPγS on gustducin and other G-protein α-subunits was measured in the presence of 10 nM rho-mT2R5, 100 μM GDP, and 20 μM Gβ1γ8. All measurements were made at 15-minute time points, and reflect the initial rate of GTPγS binding.

μ opioid receptor = target: T6, μ opioid receptor (Homo sapiens, UniProt P35372); assay: FURA-2 [Ca2+]i imaging in HEK-293 cells with Gα15 and μ opioid receptor; format: cell-based; conditions: 10 μM
T6 construct: expressed in transfected cells; host or cells: HEK-293 cells containing Gα15
From the text: as §1

T1 sequence (P23385 19-1199): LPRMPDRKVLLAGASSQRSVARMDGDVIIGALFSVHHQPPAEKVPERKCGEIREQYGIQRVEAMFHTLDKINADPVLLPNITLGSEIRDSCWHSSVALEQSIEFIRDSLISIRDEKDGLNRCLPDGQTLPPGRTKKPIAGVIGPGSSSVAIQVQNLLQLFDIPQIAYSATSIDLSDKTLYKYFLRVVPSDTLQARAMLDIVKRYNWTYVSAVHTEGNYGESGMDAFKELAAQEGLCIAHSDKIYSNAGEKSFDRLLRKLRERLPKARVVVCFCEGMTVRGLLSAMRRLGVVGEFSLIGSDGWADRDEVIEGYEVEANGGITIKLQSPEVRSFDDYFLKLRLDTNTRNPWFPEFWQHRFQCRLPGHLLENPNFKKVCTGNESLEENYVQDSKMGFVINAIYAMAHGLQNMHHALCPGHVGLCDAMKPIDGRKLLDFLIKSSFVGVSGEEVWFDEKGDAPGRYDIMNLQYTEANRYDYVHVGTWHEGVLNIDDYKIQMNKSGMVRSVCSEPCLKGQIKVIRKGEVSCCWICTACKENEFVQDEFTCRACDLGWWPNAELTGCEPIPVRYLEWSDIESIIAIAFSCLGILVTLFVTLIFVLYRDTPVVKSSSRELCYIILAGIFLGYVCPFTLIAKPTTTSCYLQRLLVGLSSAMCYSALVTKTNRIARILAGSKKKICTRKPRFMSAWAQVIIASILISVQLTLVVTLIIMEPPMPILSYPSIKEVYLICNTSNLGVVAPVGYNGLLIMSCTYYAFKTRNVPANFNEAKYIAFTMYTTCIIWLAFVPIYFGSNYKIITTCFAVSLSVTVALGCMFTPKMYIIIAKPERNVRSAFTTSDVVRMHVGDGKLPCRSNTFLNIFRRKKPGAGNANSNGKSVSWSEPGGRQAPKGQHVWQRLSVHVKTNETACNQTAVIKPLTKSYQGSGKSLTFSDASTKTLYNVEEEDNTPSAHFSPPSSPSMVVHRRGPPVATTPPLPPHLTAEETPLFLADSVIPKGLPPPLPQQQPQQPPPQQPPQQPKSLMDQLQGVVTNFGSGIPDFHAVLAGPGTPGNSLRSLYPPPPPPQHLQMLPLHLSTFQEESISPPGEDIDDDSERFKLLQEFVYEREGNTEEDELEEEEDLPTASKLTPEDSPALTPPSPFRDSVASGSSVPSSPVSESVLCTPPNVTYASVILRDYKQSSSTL
T6 sequence (P35372 whole entry, species assumed): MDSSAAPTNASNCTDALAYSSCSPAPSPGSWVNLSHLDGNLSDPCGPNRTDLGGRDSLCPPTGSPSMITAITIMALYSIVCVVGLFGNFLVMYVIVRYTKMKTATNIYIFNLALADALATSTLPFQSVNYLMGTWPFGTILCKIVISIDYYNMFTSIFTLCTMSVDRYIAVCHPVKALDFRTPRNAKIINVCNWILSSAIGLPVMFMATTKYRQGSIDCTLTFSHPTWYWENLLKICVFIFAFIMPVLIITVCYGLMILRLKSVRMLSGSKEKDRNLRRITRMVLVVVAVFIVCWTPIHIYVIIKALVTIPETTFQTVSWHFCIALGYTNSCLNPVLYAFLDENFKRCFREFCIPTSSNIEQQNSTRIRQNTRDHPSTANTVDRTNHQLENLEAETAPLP

Structure (SMILES): N[C@@]1(C(=O)O)CC[C@H](C(=O)O)C1 (racemic) [ACPD, trans (±) 1-amino-1,3 cyclopentane dicarboxylic acid]
- [Ca2+]i response (mGluR1 receptor): increase in [Ca2+]i

Structure (SMILES): CCCc1cc(=O)[nH]c(=S)[nH]1 [6-n-propyl thiouracil]
- [Ca2+]i response to tastant (mT2R5; 10 mM): not observed
- [Ca2+]i response (hT2R4): also responded
- receptor activation (mT2R8): activated
- gustducin activation [1]: not

Structure (SMILES): C[C@@H](NC(=O)[C@@H](N)Cc1ccc(O)cc1)C(=O)NCC(=O)N(C)[C@@H](Cc1ccccc1)C(=O)NCCO [DAMGO]
- [Ca2+]i response (μ opioid receptor): increase in [Ca2+]i

Structure (SMILES): CN1[C@@H]2CC[C@H]1C[C@@H](OC(=O)C(CO)c1ccccc1)C2 (stereo partly shown) [atropine]
- [Ca2+]i response to tastant (mT2R5; 5 mM): not observed
- gustducin activation [1]: not

Structure (SMILES): COc1cc2c(cc1OC)[C@@]13CCN4CC5=CCO[C@H]6CC(=O)N2[C@H]1[C@H]6[C@H]5C[C@H]43 [brucine]
- [Ca2+]i response to tastant (mT2R5; 5 mM): not observed
- gustducin activation [1]: not

Structure (SMILES): O=C(O)/C=C/c1ccc(O)c(O)c1 [caffeic acid]
- [Ca2+]i response to tastant (mT2R5; 2 mM): not observed

Structure (SMILES): Cn1c(=O)c2c(ncn2C)n(C)c1=O [caffeine]
- gustducin activation [1]: not

Structure (SMILES): NC(=S)Nc1ccccc1 [phenyl thiocarbamide]
- [Ca2+]i response to tastant (mT2R5; 3 mM): not observed
- gustducin activation [1]: not

Structure (SMILES): C=C[C@H]1C[N@@]2CC[C@H]1C[C@H]2[C@H](O)c1ccnc2ccc(OC)cc12 [quinine]
- gustducin activation [1]: not

Structure (SMILES): O=C1NS(=O)(=O)c2ccccc21 [saccharin]
- [Ca2+]i response to tastant (mT2R5; 10 mM): not observed
- gustducin activation [1]: not

Structure (SMILES): CC(=O)OC[C@H]1O[C@@](COC(C)=O)(O[C@H]2O[C@H](COC(C)=O)[C@@H](OC(C)=O)[C@H](OC(C)=O)[C@H]2OC(C)=O)[C@@H](OC(C)=O)[C@@H]1OC(C)=O [sucrose octaacetate]
- [Ca2+]i response to tastant (mT2R5; 3 mM): not observed
- gustducin activation [1]: not
